Test results taken from patent CN110179802A (priority 2019, dated 2019).

Tests used:
[1] = tested on: haemolytic activity of MRSA43300 culture supernatant on rabbit erythrocytes (MRSA43300培养物上清对兔红细胞的溶血活性); assay: Haemolytic activity of MRSA43300 culture supernatant on rabbit erythrocytes after co-culture at sub-inhibitory concentrations; assay type: cell-based, MRSA 43300 (Staphylococcus aureus); rabbit erythrocytes; conditions: for inhibition rate of haemolysis: 16 h at 37℃ with MRSA43300, 543 nm
α-hemolysin (α-溶血素) = assay type: cell-based, Staphylococcus aureus (MRSA43300)
MRSA43300 = assay: Antibacterial activity against MRSA43300; assay type: cell-based, Staphylococcus aureus (MRSA43300)
[2] = tested on: Staphylococcus aureus (金黄色葡萄球菌); conditions: cited from earlier work
MRSA = conditions: cited from earlier work
[3] = tested on: Streptococcus pyogenes (酿脓链球菌); conditions: cited from earlier work
[4] = tested on: Mycoplasma pneumonia (肺炎支原体); conditions: cited from earlier work
Pyogeniccoccus (化脓链球菌) = conditions: cited from earlier work
[5] = in vivo; cited from earlier work
HIa gene (HIa基因) = assay: Real-time PCR of HIa gene transcription in MRSA43300
agrA gene (agrA基因) = assay: Real-time PCR of agrA gene transcription in MRSA43300
[6] = 1/2MIC, 1/4MIC, 1/8MIC, compared with control group

## C=C[C@]1(C)C[C@@H](OC(=O)CSc2nc(N)cc(N)n2)[C@]2(C)[C@H](C)CC[C@]3(CCC(=O)[C@H]32)[C@@H](C)[C@@H]1O [14-O-[(4,6-二氨基嘧啶-2-基)巯乙酰基]姆体林]
[1]; 1/2MIC
  inhibition rate of haemolysis: 97.24±1.15%
[1]; 1/4MIC
  inhibition rate of haemolysis: 96.4±2.1%
[1]; 1/16MIC
  inhibition rate of haemolysis: 31.5±7.86%
[1]; sub-inhibitory concentrations, 1/2MIC to 1/32MIC
  inhibition of haemolytic activity, concentration dependence: 抑制能力随药物浓度的升高而增强
α-hemolysin (α-溶血素)
  content of α-hemolysin in culture supernatant: 能减少培养物上清中的α-溶血素的含量,且呈明显的浓度依赖性
MRSA43300
  antibacterial activity: 较好抑菌活性
[2]
  antibacterial activity: 良好的抑菌活性
MRSA
  antibacterial activity: 良好的抑菌活性
[3]
  antibacterial activity: 良好的抑菌活性
[4]
  antibacterial activity: 良好的抑菌活性
Pyogeniccoccus (化脓链球菌)
  antibacterial activity: 良好的抑菌活性
[5]
  toxicity: 毒性低
HIa gene (HIa基因); [6]
  HIa gene transcription level: 与对照组相比差异极显著
HIa gene (HIa基因); 1/16MIC, compared with control group
  HIa gene transcription level: 与对照组相比差异显著
HIa gene (HIa基因); 1/32MIC
  HIa gene transcription level: 不影响HIa基因转录水平
agrA gene (agrA基因); [6]
  agrA gene transcription level: 与对照组相比差异显著
agrA gene (agrA基因); 1/16MIC
  agrA gene transcription level: 没有明显的影响
agrA gene (agrA基因); 1/32MIC
  agrA gene transcription level: 不影响agrA的基因转录水平
